Data published in patent US11890288B2, “Sulfonamide or sulfinamide compound having effect of inducing BRD4 protein degradation and pharmaceutical use thereof” (MITSUBISHI TANABE PHARMA CORPORATION, priority 2020, dated 2024).

Tests used:
[1] = tested on: human prostate cancer LNCaP cells; experiment: Cytotoxic action on LNCaP cells (WST-8, 96 hr); format: cell-based; conditions: 96 hr culture
Summary of the method: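 WST-8 viable-cell readout after 96 hr compound exposure in 10% FBS/RPMI1640, 37° C, 5% CO2; cells pre-cultured overnight before dosing. Survival normalised to compound-free control (100%); IC50 by straight-line interpolation between the two concentrations flanking 50% survival.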

MDA-MB-436 w/o2 cells = experiment: Cytotoxic action on MDA-MB-436 w/o2 cells that acquired resistance to conventional BRD4 degraders (WST-8, 96 hr); format: cell-based, human
Experimental: (§1) The cytotoxic action of the compound of the present invention against cancer cells that acquired resistance to conventional BRD4 protein degradation inducing agents was evaluated in vitro. In this experiment, ARV-771 (Proc Natl Acad Sci USA. volume 113, pages 7124-7129 (28 Jun. 2016)) and MZ1 (ACS Chem Biol. Volume 10, pages 1770-1777 (21 Aug. 2015)), in which a ligand for VHL and BRD4 protein inhibitor are linked, were used as a conventional BRD4 protein degradation inducing agent serving as a comparison control. Human breast cancer MDA-MB-436 cells and MDA-MB-436 cells that acquired resistance to conventional BRD4 protein degradation inducing agents (MDA-MB-436 w/o2 cells) were suspended in 10% FBS/RPMI1640, seeded in a 96 well plate and cultured at 5% CO2, 37° C. overnight. A test compound dissolved in DMSO was diluted with 10% FBS/RPMI1640 and added and the cells were further cultured for 96 hr. After culturing, the viable cell number was measured using a cell number measurement WST-8 kit (Kishida Chemical Co., Ltd.). As a control, the measurement was performed under conditions free of the test compound. The cytotoxic activity of the compound of the present invention against each cell is shown in IC50 value in Table 4. The IC50 value is a concentration of the compound showing 50% cell survival rate when the cell survival rate thereof under compound untreated condition is 100%. It was calculated from the straight line connecting the cell survival rate at two points enclosing the 50% cell survival rate and the compound concentration. In addition, the tolerance (fold) was calculated by dividing the IC50 value in MDA-MB-436 w/o2 cells by the IC50 value in MDA-MB-436 cells.

[2] = tested on: human bladder cancer 5637 cell; experiment: Cytotoxic action on 5637 cells (WST-8, 96 hr); format: cell-based; conditions: 5637, 96 hr
Experimental: (§2) The cytotoxic action of the compound of the present invention against human cancer cells was evaluated in vitro. In this experiment, (+)-JQ1 (Nature volume 468, pages 1067-1073 (23 Dec. 2010)) known to have an inhibitory activity on the binding of BRD4 protein and a ligand therefor was used as a positive control drug. Respective cells were suspended in 10% FBS/RPMI1640, seeded in a 96 well plate and cultured at 5% CO2, 37° C. overnight. A test compound dissolved in DMSO was diluted with 10% FBS/RPMI1640 and added and the cells were further cultured for 96 hr. After culturing, the viable cell number was measured using a cell number measurement WST-8 kit (Kishida Chemical Co., Ltd.). As a control, the measurement was performed under conditions free of the test compound. The cytotoxic activity of the compound of the present invention against human prostate cancer LNCaP cells is shown in IC50 value in Table 1. The IC50 value is a concentration of the compound showing 50% cell survival rate when the cell survival rate thereof under compound untreated condition is 100%. It was calculated from the straight line connecting the cell survival rate at two points enclosing the 50% cell survival rate and the compound concentration. […]

[3] = tested on: human stomach cancer SNU-16 cell; experiment: Cytotoxic action on SNU-16 cells (WST-8, 96 hr); format: cell-based; conditions: SNU-16, 96 hr
Experimental: as §2

[4] = tested on: human EGFRT790M mutation-positive non-small cell lung cancer NCI-H1975 cell; experiment: Cytotoxic action on NCI-H1975 cells (WST-8, 96 hr); format: cell-based; conditions: NCI-H1975, 96 hr
Experimental: as §2

[5] = tested on: human non-small cell lung cancer NCI-H2126 cell; experiment: Cytotoxic action on NCI-H2126 cells (WST-8, 96 hr); format: cell-based; conditions: NCI-H2126, 96 hr
Experimental: as §2

[6] = tested on: Human breast cancer MDA-MB-436 cells; experiment: Cytotoxic action on MDA-MB-436 cells (WST-8, 96 hr); format: cell-based; conditions: Homo sapiens
Experimental: as §1

[7] = tested on: human cisplatin-resistant ovarian cancer SK-OV-03 cell; experiment: Cytotoxic action on SK-OV-03 cells (WST-8, 96 hr); format: cell-based; conditions: SK-OV-03, 96 hr
Experimental: as §2

## COC(=O)C[C@@H]1N=C(c2ccc(-c3ccc(C(=O)NCc4ccc(S(=O)(=O)Nc5ccc(C)c6c(C#N)c[nH]c56)cc4)cc3)cc2)c2c(sc(C)c2C)-n2c(C)nnc21 [Example 1, methyl [(6S)-4-{4′-[({4-[(3-cyano-4-methyl-1H-indol-7-yl)sulfamoyl]phenyl}methyl)carbamoyl][1,1′-biphenyl]-4-yl}-2,3,9-trimethyl-6H-thieno[3,2-f][1,2,4]triazolo[4,3-a][1,4]diazepin-6-yl]acetate]
[1]
  IC50: 0.14 nM
MDA-MB-436 w/o2 cells; Homo sapiens, MDA-MB-436 w/o2 cells, 96 hr
  IC50: 0.51 nM
MDA-MB-436 w/o2 cells; IC50 in MDA-MB-436 w/o2 cells divided by IC50 in MDA-MB-436 cells
  resistance: 1.3 fold
[2]
  IC50: 1.9 nM
[3]
  IC50: 6.4 nM
[4]
  IC50: 3.6 nM
[5]
  IC50: 6.6 nM
[6]
  IC50: 0.39 nM
[7]
  IC50: 41 nM
